Data from paper PMC8617031, “Development of a BCL-xL and BCL-2 dual degrader with improved anti-leukemic activity,” (Nature Communications, 2021).
Where “and” joins values, the source holds several entries; their conditions need not be identical. Identical values can stand only once. Like-named read-outs stand apart in the source and are kept apart here.

Tested on: Kasumi-1 cells
Assay: Viability (MTS) of Kasumi-1 AML cells
Assay type: cell-based, human
Settings: for IC50: 72 h
[1] = 3.90625 nM (plate column 2), Fig. 7a
[2] = 7.8125 nM (plate column 3), Fig. 7a
[3] = 15.625 nM (plate column 4), Fig. 7a
[4] = 31.25 nM (plate column 5), Fig. 7a
[5] = 62.5 nM (plate column 6), Fig. 7a
[6] = 125 nM (plate column 7), Fig. 7a
[7] = 250 nM (plate column 8), Fig. 7a
[8] = 500 nM (plate column 9), Fig. 7a
[9] = 1000 nM (plate column 10), Fig. 7a
[10] = 2000 nM = 2U (plate column 11), Fig. 7a
[11] = 4000 nM = 4U (plate column 12), Fig. 7a

Structure (SMILES) | Luminescence (raw plate reading) [1] | Luminescence (raw plate reading) [2] | Luminescence (raw plate reading) [3] | Luminescence (raw plate reading) [4] | Luminescence (raw plate reading) [5] | Luminescence (raw plate reading) [6] | Luminescence (raw plate reading) [7] | Luminescence (raw plate reading) [8] | Luminescence (raw plate reading) [9] | Luminescence (raw plate reading) [10] | Luminescence (raw plate reading) [11] | Luminescence normalised to mean of the 0 concentration wells (= 100), viability (3.90625 (nM), Fig. 7a) | Luminescence normalised to mean of the 0 concentration wells (= 100), viability (7.8125 (nM), Fig. 7a) | Luminescence normalised to mean of the 0 concentration wells (= 100), viability (15.625 (nM), Fig. 7a) | Luminescence normalised to mean of the 0 concentration wells (= 100), viability (31.25 (nM), Fig. 7a) | Luminescence normalised to mean of the 0 concentration wells (= 100), viability (62.5 (nM), Fig. 7a) | Luminescence normalised to mean of the 0 concentration wells (= 100), viability (125 (nM), Fig. 7a) | Luminescence normalised to mean of the 0 concentration wells (= 100), viability (250 (nM), Fig. 7a) | Luminescence normalised to mean of the 0 concentration wells (= 100), viability (500 (nM), Fig. 7a) | Luminescence normalised to mean of the 0 concentration wells (= 100), viability (1000 (nM), Fig. 7a) | further results
CC1(C)CCC(CN2CCN(c3ccc(C(=O)NS(=O)(=O)c4ccc(NCC5CCOCC5)c([N+](=O)[O-])c4)c(Oc4cnc5[nH]ccc5c4)c3)CC2)=C(c2ccc(Cl)cc2)C1 [ABT199, venetoclax] | 505600 and 468580 and 525678 and 543318 | 504424 and 455660 and 487360 and 542979 | 489014 and 455068 and 501527 and 480804 | 466073 and 441818 and 471956 and 491899 | 440585 and 409812 and 377802 and 367500 | 397154 and 357971 and 355935 and 386744 | 359551 and 316363 and 300748 and 321366 | 315682 and 289875 and 281016 and 292587 | 293868 and 256148 and 279970 and 273769 | 258049 and 207791 and 210071 and 198590 | 180705 and 155931 and 141587 and 133830 | 73.8707 and 68.4619 and 76.8042 and 79.3815 | 73.6989 and 66.5743 and 71.2058 and 79.332 | 71.4474 and 66.4878 and 73.2757 and 70.2479 | 68.0956 and 64.5519 and 68.9552 and 71.869 | 64.3717 and 59.8756 and 55.1988 and 53.6936 | 58.0262 and 52.3014 and 52.0039 and 56.5053 | 52.5322 and 46.2223 and 43.9408 and 46.9532 | 46.1228 and 42.3522 and 41.0579 and 42.7485 | 42.9356 and 37.4245 and 40.905 and 39.9991 | Luminescence normalised to mean of the 0 concentration wells (= 100), viability (2000 (nM, 2U), Fig. 7a): 37.7023 and 30.3593 and 30.6924 and 29.015; Luminescence normalised to mean of the 0 concentration wells (= 100), viability (4000 (nM, 4U), Fig. 7a): 26.4019 and 22.7823 and 20.6866 and 19.5532; IC50 (Homo sapiens, Kasumi 1, Fig. 7a, read-out: IC50, viability of Kasumi-1 AML cells): 0.867 µM; IC50 (Homo sapiens, Kasumi 1, Fig. 7c, read-out: IC50, viability of Kasumi-1 cells): 1.13 µM
Cc1c(-c2c(-c3ccc(F)o3)sc3ncnc(O[C@H](Cc4ccccc4OCc4ccnn4CC(F)(F)F)C(=O)O)c23)ccc(OCCN2CCN(C)CC2)c1Cl [S63845] | 585765 and 593361 and 588702 and 615617 | 614886 and 587762 and 581843 and 642033 | 585793 and 568144 and 557931 and 596587 | 583012 and 572945 and 570605 and 624151 | 545426 and 545383 and 550949 and 588219 | 511944 and 516519 and 502413 and 546675 | 434681 and 438403 and 429749 and 470053 | 365024 and 363596 and 364210 and 384218 | 263752 and 271433 and 266762 and 285013 | 165813 and 178184 and 172580 and 186041 | 112826 and 107734 and 101511 and 111059 | 85.5833 and 86.6931 and 86.0124 and 89.9448 | 89.838 and 85.875 and 85.0102 and 93.8043 | 85.5874 and 83.0087 and 81.5166 and 87.1644 | 85.181 and 83.7102 and 83.3683 and 91.1917 | 79.6895 and 79.6832 and 80.4965 and 85.9418 | 74.7976 and 75.4661 and 73.4051 and 79.872 | 63.5091 and 64.0529 and 62.7885 and 68.6771 | 53.3319 and 53.1232 and 53.2129 and 56.1362 | 38.5355 and 39.6577 and 38.9753 and 41.6419 | Luminescence normalised to mean of the 0 concentration wells (= 100), viability (2000 (nM, 2U), Fig. 7a): 24.2261 and 26.0336 and 25.2148 and 27.1815; Luminescence normalised to mean of the 0 concentration wells (= 100), viability (4000 (nM, 4U), Fig. 7a): 16.4845 and 15.7405 and 14.8313 and 16.2263; IC50 (Fig. 7a, read-out: IC50, viability of Kasumi-1 AML cells): 0.527 µM
